The values that follow come from patent publication US9795139B2, “Molecules having pesticidal utility, and intermediates, compositions, and processes, related thereto” (priority 2015, dated 2017).

Common to all, as to type: in vivo
Series [1] deals with Yellow Fever Mosquito (Aedes aegypti, AEDSAE). To be noted: about 1 day-old larvae, 96-well plate from 4000 ppm DMSO master, 3 days at room temperature. The essentials: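 Aedes aegypti larvae (about 1 day old) in liver-powder water were added to plates dispensed from DMSO master plates (4000 ppm stock) diluted with 90:10 water/acetone; six replicate plates per master. Lidded plates were held at room temperature for 3 days, then each well was scored for mortality.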

Series [2] concerns Cabbage Looper (Trichoplusia ni, TRIPNI). As to the kind of experiment: Bioassay on Cabbage Looper (CL), 128-well diet tray assay. The note with it: 168 h, read-out: CL % Control (or Mortality) rating. The essentials: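 Test molecule is dissolved in 90:10 acetone-water and applied at 50 μg/cm^2 onto artificial diet, then dried. One to five second-instar larvae go into each of eight wells. Trays, sealed but vented, stay at 25° C., 14:10 light-dark, five to seven days, after which mortality is averaged.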

Series [3] relates to Beet Armyworm (Spodoptera exigua, LAPHEG). As to the kind of experiment: Bioassay on Beet Armyworm (BAW), 128-well diet tray assay. The note with it: 168 h, read-out: BAW % Control (or Mortality) rating. In a few lines:
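Diet tray, 8 wells/compound; 50 μg/cm^2 applied to diet surface (90:10 acetone-water), dried. 1–5 L2 larvae/well; 25° C., 14:10 L:D, 5–7 d. Read-out: % mortality, mean of 8 wells.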

The mark [4] stands for this setting: 50 μg/cm^2 on artificial diet, second instar larvae, 25° C., five to seven days, average of eight wells.

Each structure is given as a SMILES string. Read-outs that look alike come from different tables or passages of the source.

What is called mortality is the percentage killed. Consider `CN(C(=O)c1cc(NC(=O)[C@H]2[C@H](c3cc(Cl)c(Cl)c(Cl)c3)C2(Cl)Cl)ccc1Cl)C1(C#N)CC1` (relative stereo) [PF21, trans-2-Chloro-N-(1-cyanocyclopropyl)-5-(2,2-dichloro-3-(3,4,5-trichloro-phenyl)cyclopropane-1-carboxamido)-N-methylbenzamide], for which the “YFM % Control (or Mortality) rating” value in series [1] is given as “B (More than 0-Less than 80)”. In addition, the mortality at 50 µg/cm2 in series [2] (setting [4]) and in series [3] (setting [4]) was 50 to 100% in each case.
With `CN(C(=O)c1cc(NC(=O)[C@H]2[C@H](c3ccc(Cl)c(Cl)c3)C2(Cl)Cl)ccc1Cl)C1(C#N)CC1` (relative stereo) [PF22, trans-2-Chloro-N-(1-cyanocyclopropyl)-5-(2,2-dichloro-3-(3,4-dichloro-phenyl)cyclopropane-1-carboxamido)-N-methylbenzamide], the “YFM % Control (or Mortality) rating” value in series [1] is given as “B (More than 0-Less than 80)”. Besides, the mortality at 50 µg/cm2 in series [2] (setting [4]) and in series [3] (setting [4]) was 50 to 100% each time.
Consider `O=C(NC1CC1(F)F)c1cc(NC(=O)[C@H]2[C@H](c3cc(Cl)cc(Cl)c3)C2(Cl)Cl)ccc1Cl` (relative stereo) [PF23, trans-2-Chloro-5-(2,2-dichloro-3-(3,5-dichlorophenyl)cyclopropane-1-carboxamido)-N-(2,2-difluorocyclopropyl)benzamide], for which the “YFM % Control (or Mortality) rating” value in series [1] is listed as “A (80-100)”. Moreover, the mortality at 50 µg/cm2 in series [2] (setting [4]) and in series [3] (setting [4]) was 50 to 100% throughout.
For the compound `N#CC1(NC(=O)c2cc(NC(=O)[C@H]3[C@H](c4cc(Cl)cc(Cl)c4)C3(Br)Br)ccc2Cl)CC1` (relative stereo) [PF30, trans-2-Chloro-N-(1-cyanocyclopropyl)-5-(2,2-dibromo-3-(3,5-dichlorophenyl)-cyclopropane-1-carboxamido)benzamide], the “YFM % Control (or Mortality) rating” value in series [1] is on record as “D (No activity noticed in this bioassay)”. Also, the mortality at 50 µg/cm2 in series [2] (setting [4]) and in series [3] (setting [4]) was 50 to 100% each time.
As for `O=C(NC1CC(F)(F)C1)c1cc(NC(=O)[C@H]2[C@H](c3cc(Cl)cc(Cl)c3)C2(Br)Br)ccc1Cl` (relative stereo) [PF31, trans-2-Chloro-5-(2,2-dibromo-3-(3,5-dichlorophenyl)cyclopropane-1-carboxamido)-N-(3,3-difluorocyclobutyl)benzamide], the “YFM % Control (or Mortality) rating” value in series [1] was “B (More than 0-Less than 80)”. Further, the mortality at 50 µg/cm2 in series [2] (setting [4]) and in series [3] (setting [4]) was 50 to 100% throughout.
For `CC1(NC(=O)c2cc(NC(=O)[C@H]3[C@H](c4cc(Cl)cc(Cl)c4)C3(Cl)Cl)ccc2Cl)CC1` (relative stereo) [PF32, trans-2-Chloro-5-(2,2-dichloro-3-(3,5-dichloro-phenyl)cyclopropanecarboxamido)-N-(1-methylcyclopropyl)benzamide], in series [1], the “YFM % Control (or Mortality) rating” value is recorded as “A (80-100)”. The mortality at 50 µg/cm2 in series [2] (setting [4]) and in series [3] (setting [4]) was 50 to 100% each time.
In the case of `COC(=O)C1(NC(=O)c2cc(NC(=O)[C@H]3[C@H](c4cc(Cl)cc(Cl)c4)C3(Cl)Cl)ccc2Cl)CCCC1` (relative stereo) [PF33, trans-Methyl 1-(2-chloro-5-(2,2-dichloro-3-(3,5-dichlorophenyl)cyclopropane-carboxamido)benzamido)cyclopentanecarboxylate], the “YFM % Control (or Mortality) rating” value in series [1] is reported as “D (No activity noticed in this bioassay)”. Further, the figures for the mortality at 50 µg/cm2 in series [2] (setting [4]) and in series [3] (setting [4]) were 50 to 100% and 0 to 50%, respectively.
As for `O=C(N[C@@H]1CON(CC(F)(F)F)C1=O)c1cc(NC(=O)C2C(c3ccc(Cl)c(Cl)c3)C2(Cl)Cl)ccc1Cl` (stereo in doubt) [Molecule F79, trans-2-Chloro-5-(2,2-dichloro-3-(3,4-dichlorophenyl)cyclopropane-1-carboxamido)-N—((R)-3-oxo-2-(2,2,2-trifluoroethyl)isoxazolidin-4-yl)benzamide], the “YFM % Control (or Mortality) rating” value in series [1] is “A (80-100)”. Besides, the mortality at 50 µg/cm2 in series [2] (setting [4]) and in series [3] (setting [4]) was 50 to 100% each time.
On to `O=C(N[C@@H]1CON(CC(F)(F)F)C1=O)c1cc(NC(=O)C2C(c3cc(Cl)c(Cl)c(Cl)c3)C2(Cl)Cl)ccc1Cl` (stereo in doubt) [Molecule F80, trans-2-Chloro-5-(2,2-dichloro-3-(3,4,5-trichlorophenyl)cyclopropane-1-carboxamido)-N—((R)-3-oxo-2-(2,2,2-trifluoroethyl)isoxazolidin-4-yl)benzamide], for which, in series [1], the “YFM % Control (or Mortality) rating” value is on record as “A (80-100)”. For the same compound, the mortality at 50 µg/cm2 in series [2] (setting [4]) and in series [3] (setting [4]) was 50 to 100% each time.
Regarding `O=C(NC1CCC1)c1cc(NC(=O)C2C(c3cc(Cl)c(Cl)c(Cl)c3)C2(Cl)Cl)ccc1Cl` (stereo not drawn) [Molecule F42, trans-2-Chloro-N-cyclobutyl-5-(2,2-dichloro-3-(3,4-trichlorophenyl)cyclopropanecarboxamido)benzamide], in series [1], the “YFM % Control (or Mortality) rating” value is on record as “D (No activity noticed in this bioassay)”. Moreover, the mortality at 50 µg/cm2 in series [2] (setting [4]) and in series [3] (setting [4]) was 50 to 100% each time.
On to `N#CC1(NC(=O)c2cc(NC(=O)[C@H]3[C@H](c4cc(Cl)c(Cl)c(Cl)c4)C3(Cl)Cl)ccc2Cl)CC1` [Molecule F63, 2-Chloro-N-(1-cyanocyclopropyl)-5-((1R,3R)-2,2-dichloro-3-(3,4,5-trichloro-phenyl)cyclopropane-1-carboxamido)benzamide], for which the “YFM % Control (or Mortality) rating” value in series [1] was “A (80-100)”. Besides, the mortality at 50 µg/cm2 in series [2] (setting [4]) and in series [3] (setting [4]) was 50 to 100% each time.
Regarding `N#CC1(NC(=O)c2cc(NC(=O)[C@@H]3[C@@H](c4cc(Cl)c(Cl)c(Cl)c4)C3(Cl)Cl)ccc2Cl)CC1` [Molecule F64, 2-Chloro-N-(1-cyanocyclopropyl)-5-((1S,3S)-2,2-dichloro-3-(3,4,5-trichloro-phenyl)cyclopropane-1-carboxamido)benzamide], in series [1], the “YFM % Control (or Mortality) rating” value is “A (80-100)”. The mortality at 50 µg/cm2 in series [2] (setting [4]) and in series [3] (setting [4]) was 50 to 100% in each case.
With `N#CC1(NC(=O)c2cc(NC(=O)C3C(c4cc(Cl)cc(Cl)c4)C3(Cl)Br)ccc2Cl)CC1` (stereo not drawn) [Molecule F72], the “YFM % Control (or Mortality) rating” value in series [1] was “D (No activity noticed in this bioassay)”. Moreover, the mortality at 50 µg/cm2 in series [2] and in series [3] was 50 to 100% each time.
Consider `O=C(NC1CC(F)(F)C1)c1cc(NC(=O)[C@H]2[C@H](c3cc(Cl)cc(Cl)c3)C2(Cl)Cl)ccc1Cl` [Molecule F73, 2-Chloro-5-((1R,3R)-2,2-dichloro-3-(3,5-dichlorophenyl)cyclopropanecarbox-amido)-N-(3,3-difluorocyclobutyl)benzamide], for which the “YFM % Control (or Mortality) rating” value in series [1] was “A (80-100)”. In addition, the mortality at 50 µg/cm2 in series [2] (setting [4]) and in series [3] (setting [4]) was 50 to 100% throughout.
Regarding `O=C(NC1CC(F)(F)C1)c1cc(NC(=O)[C@@H]2[C@@H](c3cc(Cl)cc(Cl)c3)C2(Cl)Cl)ccc1Cl` [Molecule F74, 2-Chloro-5-((1S,3S)-2,2-dichloro-3-(3,5-dichlorophenyl)cyclopropane-1-carboxamido)-N-(3,3-difluorocyclobutyl)benzamide], the “YFM % Control (or Mortality) rating” value in series [1] is reported as “A (80-100)”. The mortality at 50 µg/cm2 in series [2] (setting [4]) and in series [3] (setting [4]) was 50 to 100% in each case.
As for `N#CC1(NC(=O)c2cc(NC(=O)[C@@H]3[C@@H](c4cc(Cl)cc(Cl)c4)C3(Cl)Cl)ccc2Cl)CC1` [Molecule F76, 2-Chloro-N-(1-cyanocyclopropyl)-5-((1S,3S)-2,2-dichloro-3-(3,5-dichloro-phenyl)cyclopropanecarboxamido)benzamide], in series [1], the “YFM % Control (or Mortality) rating” value is listed as “A (80-100)”. The mortality at 50 µg/cm2 in series [2] (setting [4]) and in series [3] (setting [4]) was 50 to 100% throughout.
For `N#Cc1cc(Cl)cc(C2C(C(=O)Nc3ccc(Cl)c(C(=O)NC4CC(F)(F)C4)c3)C2(Cl)Cl)c1` (stereo not drawn) [Molecule F77, trans-2-Chloro-5-(2,2-dichloro-3-(3-chloro-5-cyanophenyl)cyclopropane-1-carboxamidocarboxamido)-N-(3,3-difluorocyclobutyl)benzamide], the “YFM % Control (or Mortality) rating” value in series [1] is listed as “A (80-100)”. The mortality at 50 µg/cm2 in series [2] (setting [4]) and in series [3] (setting [4]) was 50 to 100% each time.
Regarding `O=C(N[C@@H]1CON(CC(F)(F)F)C1=O)c1cc(NC(=O)C2C(c3cc(Cl)cc(Cl)c3)C2(Cl)Cl)ccc1Cl` (stereo partly drawn) [PF28, trans-2-Chloro-5-(2,2-dichloro-3-(3,5-dichlorophenyl)cyclopropane-1-carbox-amido)-N—((R)-3-oxo-2-(2,2,2-trifluoroethyl)isoxazolidin-4-yl)benzamide], the “YFM % Control (or Mortality) rating” value in series [1] is recorded as “A (80-100)”. Besides, the mortality at 50 µg/cm2 in series [2] (setting [4]) and in series [3] (setting [4]) was 50 to 100% each time.
With `O=C(NC1CCNC1=O)c1cc(NC(=O)C2C(c3cc(Cl)cc(Cl)c3)C2(Cl)Cl)ccc1Cl` (stereo not drawn) [PF29, trans-2-Chloro-5-(2,2-dichloro-3-(3,5-dichlorophenyl)cyclopropane-1-carbox-amido)-N-(2-oxopyrrolidin-3-yl)benzamide], the “YFM % Control (or Mortality) rating” value in series [1] is “B (More than 0-Less than 80)”. Moreover, the mortality at 50 µg/cm2 in series [2] (setting [4]) and in series [3] (setting [4]) was 50 to 100% throughout.
